In the supplement of paper PMC10011410:
± gives the standard deviation of the averaged measurements.

Assays:
[1] = test system: U-2 OS; assay: intracellular GSH:GSSG ratio (calculated); higher = more reduced glutathione pool; conditions: 24 h
Experimental: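 Intracellular glutathione in U-2 OS cells after 24 h compound treatment at 5, 10 and 20 uM (some at 40 and 80 uM). Total glutathione and GSSG were measured with the GSH/GSSG-Glo kit, and the GSH:GSSG ratio was calculated. Mean of five technical replicate plates.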

[2] = test system: U-2 OS; assay: cell viability (CellTiter-Glo) relative to DMSO (% of control); higher = more viable; conditions: 24 h
Experimental: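 Cell viability of U-2 OS cells by CellTiter-Glo after 24 h compound treatment at 5, 10 and 20 uM (some at 40 and 80 uM), measured in parallel with the glutathione assay, as percent of DMSO control. Five technical replicate plates, averaged.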

[3] = test system: U-2 OS; assay: total intracellular glutathione (GSH + GSSG) relative to DMSO (% of control); higher = more glutathione; conditions: 24 h
Experimental: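 Total intracellular glutathione (GSH + GSSG) in U-2 OS cells by GSH/GSSG-Glo after 24 h compound treatment at 5, 10 and 20 uM (some at 40 and 80 uM), as percent of DMSO control. Five technical replicate plates, averaged.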

[4] = test system: U-2 OS; assay: cell painting activity score (Mahalanobis distance from DMSO wells); higher = stronger morphological phenotype; conditions: 24 h
In short: (§1)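 U-2 OS cells were seeded at about 1,500 per well in 384-well plates and treated by pin tool for 24 h at 37 °C, usually at six 2-fold concentrations from 20 μM to 625 nM. After staining with MitoTracker, concanavalin A, phalloidin, wheat germ agglutinin, Hoechst and SYTO 14, plates were imaged on an Opera Phenix and features were extracted with CellProfiler and normalized to DMSO cells on the same plate. The activity score is the Mahalanobis distance from DMSO wells, and cell count is given relative to DMSO wells. Each value is the mean of four replicate plates.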

[5] = test system: U-2 OS; assay: relative cell count vs DMSO (cell painting) (fraction of DMSO control); higher = more cells remaining (less cytotoxic); conditions: 24 h
In short: as §1

[6] = test system: U-2 OS; assay: AUC of culture confluence over time (live-cell imaging) (AUC (confluence % x time)); higher = more confluent culture (less growth inhibition)
In short: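 Live-cell imaging tracked confluence of U-2 OS cells grown in F-12K medium plus 10% FBS. After seeding at 750 cells per well in 384-well plates, cells received compounds by pin tool 24 h later, mostly at 20, 10 and 5 μM, with 0.2% DMSO. Plates stayed at 37 °C and were imaged every 4 h for up to 60 h. Each value is the area under the confluence-versus-time curve.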

Row | SMILES | intracellular GSH:GSSG ratio ([1]; 5 µM) | intracellular GSH:GSSG ratio ([1]; 10 µM) | intracellular GSH:GSSG ratio ([1]; 20 µM) | intracellular GSH:GSSG ratio ([1]; 40 µM) | cell viability ([2]; 5 µM) | cell viability ([2]; 10 µM) | cell viability ([2]; 20 µM) | cell viability ([2]; 40 µM) | cell viability ([2]; 80 µM) | total intracellular glutathione ([3]; 5 µM) | total intracellular glutathione ([3]; 10 µM) | total intracellular glutathione ([3]; 20 µM) | total intracellular glutathione ([3]; 40 µM) | total intracellular glutathione ([3]; 80 µM) | cell painting activity score ([4]; 0.625 µM) | cell painting activity score ([4]; 1.25 µM) | cell painting activity score ([4]; 2.5 µM) | cell painting activity score ([4]; 5 µM) | cell painting activity score ([4]; 10 µM) | cell painting activity score ([4]; 20 µM) | relative cell count ([5]; 0.625 µM) | relative cell count ([5]; 1.25 µM) | relative cell count ([5]; 2.5 µM) | relative cell count ([5]; 5 µM) | relative cell count ([5]; 10 µM) | relative cell count ([5]; 20 µM) | AUC of culture confluence over time ([6]; 5 µM) | AUC of culture confluence over time ([6]; 10 µM) | AUC of culture confluence over time ([6]; 20 µM) | intracellular GSH:GSSG ratio ([1]; 80 µM)
1 | c1cc(SSc2ccns2)sn1 | 24.1 | 6.28 | 4.87 | 0.0649 | 94.5 ± 3.6 | 62.9 ± 10 | 29 ± 8.2 | 2.06 ± 0.76 | 0.459 ± 0.058 | 93.2 ± 6.5 | 67.1 ± 14 | 31.5 ± 34 | 25.6 ± 43 | 22.5 ± 43 | 5.35 | 4.46 | 6.31 | 8.63 | 14.8 | 17.2 | 0.85 | 0.816 | 0.752 | 0.635 | 0.137 | 0.116 |  |  |  | 
2 | O=C1C(NCCN2CCOCC2)=C(Cl)C(=O)c2ncccc21 |  |  |  |  | 0.456 ± 0.11 | 0.267 ± 0.043 | 0.463 ± 0.11 |  |  | 2.27 ± 0.32 | 1.68 ± 0.27 | 2.13 ± 0.32 |  |  | 13.7 | 13.9 | 19.1 | 25.9 | 25.2 | 24.1 | 0.572 | 0.496 | 0.191 | 0.0808 | 0.0881 | 0.111 | 13.2 | 12.9 | 13 | 
3 | CN(C)C/C=C/C(=O)Nc1cc2c(Nc3ccc(F)c(Cl)c3)ncnc2cc1O[C@H]1CCOC1 |  |  |  |  | 63 ± 4 | 52.4 ± 3.5 | 47.2 ± 2.5 |  |  | 101 ± 4.4 | 110 ± 3.7 | 105 ± 2.6 |  |  | 8.62 | 12.1 | 12.2 | 11.2 | 12.6 | 18.5 | 0.955 | 0.955 | 0.877 | 0.894 | 0.538 | 0.275 |  |  |  | 
4 | C=C1C(=O)O[C@H](CCC)[C@H]1C(=O)O | 21.5 | 22.5 | 22.9 | 25.2 | 91.7 ± 2.8 | 98.6 ± 6 | 95.5 ± 5.5 | 105 ± 3.7 | 105 ± 7.9 | 95.1 ± 3.1 | 90.6 ± 6.3 | 94.2 ± 5.9 | 97.6 ± 5.4 | 100 ± 4 | 3.78 | 4.58 | 3.59 | 4.83 | 3.69 | 5.28 | 1.06 | 1.04 | 1.06 | 0.973 | 1.07 | 1.01 |  |  |  | 20.4
5 | CC(C)([C@](C1=O)(C2=O)C/C=C(C)\C)[C@@H](C[C@]31C[C@@H](C(C)(OC3=C2C(C4=CC(O)=C(C=C4)O)=O)C)C/C=C(C)\C)C/C=C(C)\C | 27 | 22.3 | 10.9 |  | 99.7 ± 2.4 | 62.6 ± 14 | 43.4 ± 17 | 0.646 ± 0.18 | 0.745 ± 0.2 |  |  |  |  |  | 3.69 | 3.85 | 6.36 | 7.13 | 13.5 | 18.6 | 1.21 | 1.12 | 1.19 | 1.15 | 1.04 | 0.492 |  |  |  | 17.8
6 | COc1cccc2c1C(=O)c1c(O)c3c(c(O)c1C2=O)C[C@@](O)(C(=O)CO)C[C@@H]3O[C@H]1C[C@H](N)[C@H](O)[C@H](C)O1 | 12.1 | 13 | 5.76 |  | 54.3 ± 2.8 | 38.7 ± 6.3 | 21.7 ± 1.3 |  |  | 51.8 ± 7.2 | 34.9 ± 5.7 | 18.7 ± 1.3 |  |  | 15.7 ± 0.51 | 17.8 ± 2.5 | 18.5 ± 2.1 | 19.7 ± 0.41 | 20.8 ± 0.47 | 24.3 ± 0.053 | 0.473 ± 0.035 | 0.5 ± 0.033 | 0.431 ± 0.044 | 0.404 ± 0.081 | 0.311 ± 0.025 | 0.2492 ± 0.0023 |  |  |  | 
7 | CN(C)C/C=C/C(=O)Nc1ccc(C(=O)Nc2cccc(Nc3ncc(Cl)c(-c4c[nH]c5ccccc45)n3)c2)cc1 | 2.92 | 3.73 | 6.62 |  | 34.1 ± 4.7 | 31 ± 4.3 | 10.8 ± 2.7 |  |  | 26.7 ± 2.8 | 20.6 ± 2.5 | 11.6 ± 2.1 |  |  | 22.6 | 23.3 | 23.3 | 19.2 | 18.5 | 29.4 | 0.429 | 0.45 | 0.407 | 0.251 | 0.152 | 0.164 |  |  |  | 
8 | O=[N+]([O-])c1c(Sc2ncnc3nc[nH]c23)cc(Cl)c2nsnc12 | 9.07 | 1.18 | 2.18 |  | 41.6 ± 9.6 | 5.86 ± 1.9 | 12 ± 2.9 |  |  | 74 ± 19 | 32.4 ± 4.7 | 43.3 ± 3.9 |  |  | 3.42 | 4.43 | 4.96 | 4.68 | 3.76 | 3.8 | 0.924 | 0.936 | 0.903 | 0.912 | 0.96 | 0.913 |  |  |  | 
